Measured values from ChEMBL document CHEMBL1150678, “Bioactive sterols from the starfish Certonardoa semiregularis” (2003).
Converted amounts (≈) assume the structure as drawn.

Experiments:
A549 = assay: Cytotoxicity against human A549 cells; assay type: functional; conditions: read-out: ED50 (the source's name)
Klebsiella oxytoca = assay: Antimicrobial activity against Klebsiella oxytoca 1082E after 18 hrs; assay type: functional
Escherichia coli [1] = assay: Antimicrobial activity against Escherichia coli 1507E isolate after 18 hrs; assay type: functional
Streptococcus pyogenes [2] = assay: Antimicrobial activity against Streptococcus pyogenes 308A isolate after 18 hrs; assay type: functional
Pseudomonas aeruginosa [3] = assay: Antimicrobial activity against Pseudomonas aeruginosa 9027 isolate after 18 hrs; assay type: functional
Enterococcus faecium = assay: Antimicrobial activity against Streptococcus faecium MD8b isolate after 18 hrs; assay type: functional
HCT-15 = assay: Cytotoxicity against human HCT15 cells; assay type: functional; conditions: read-out: ED50 (the source's name)
Enterobacter cloacae [4] = assay: Antimicrobial activity against Enterobacter cloacae 1321E after 18 hrs; assay type: functional
SK-OV-3 = assay: Cytotoxicity against human SKOV3 cells; assay type: functional; conditions: read-out: ED50 (the source's name)
Pseudomonas aeruginosa [5] = assay: Antimicrobial activity against Pseudomonas aeruginosa 1592E isolate after 18 hrs; assay type: functional
Escherichia coli [6] = assay: Antimicrobial activity against Escherichia coli 078 isolate after 18 hrs; assay type: functional
Escherichia coli [7] = assay: Antimicrobial activity against Escherichia coli DC2 isolate after 18 hrs; assay type: functional
Escherichia coli [8] = assay: Antimicrobial activity against Escherichia coli TEM isolate after 18 hrs; assay type: functional
Klebsiella aerogenes = assay: Antimicrobial activity against Klebsiella aerogenes 1522E after 18 hrs; assay type: functional
Enterobacter cloacae [9] = assay: Antimicrobial activity against Enterobacter cloacae P99 after 18 hrs; assay type: functional
XF498 = assay: Cytotoxicity against human XF498 cells; assay type: functional; conditions: read-out: ED50 (the source's name)
Escherichia coli [10] = assay: Antimicrobial activity against Escherichia coli DC0 isolate after 18 hrs; assay type: functional
Streptococcus pyogenes [11] = assay: Antimicrobial activity against Streptococcus pyogenes 77A isolate after 18 hrs; assay type: functional
Pseudomonas aeruginosa [12] = assay: Antimicrobial activity against Pseudomonas aeruginosa 1771 isolate after 18 hrs; assay type: functional
Staphylococcus aureus [13] = assay: Antimicrobial activity against Staphylococcus aureus 503 isolate after 18 hrs; assay type: functional
Staphylococcus aureus [14] = assay: Antimicrobial activity against Staphylococcus aureus SG511 isolate after 18 hrs; assay type: functional
Salmonella typhimurium = assay: Antimicrobial activity against Salmonella Typhimurium after 18 hrs; assay type: functional, Salmonella enterica subsp. enterica serovar Typhimurium; conditions: Salmonella enterica
SK-MEL-2 = assay: Cytotoxicity against human SK-MEL-2 cells; assay type: functional; conditions: read-out: ED50 (the source's name)
Staphylococcus aureus [15] = assay: Antimicrobial activity against Staphylococcus aureus 285 isolate after 18 hrs; assay type: functional
Pseudomonas aeruginosa [16] = assay: Antimicrobial activity against Pseudomonas aeruginosa 1771M isolate after 18 hrs; assay type: functional

Row | SMILES | MIC (Klebsiella oxytoca) [µg/mL] | MIC (Escherichia coli [1]) [µg/mL] | MIC (Streptococcus pyogenes [2]) [µg/mL] | MIC (Pseudomonas aeruginosa [3]) [µg/mL] | MIC (Enterococcus faecium) [µg/mL] | MIC (Enterobacter cloacae [4]) [µg/mL] | MIC (Pseudomonas aeruginosa [5]) [µg/mL] | MIC (Escherichia coli [6]) [µg/mL] | MIC (Escherichia coli [7]) [µg/mL] | MIC (Escherichia coli [8]) [µg/mL] | MIC (Klebsiella aerogenes) [µg/mL] | MIC (Enterobacter cloacae [9]) [µg/mL] | MIC (Escherichia coli [10]) [µg/mL] | MIC (Streptococcus pyogenes [11]) [µg/mL] | MIC (Pseudomonas aeruginosa [12]) [µg/mL] | MIC (Staphylococcus aureus [13]) [µg/mL] | EC50 (A549) [µg/mL] | EC50 (HCT-15) [µg/mL] | EC50 (SK-OV-3) [µg/mL] | EC50 (XF498) [µg/mL] | also measured
1 | CC(C)[C@@H](O)CC[C@@H](C)[C@H]1C[C@@H](O)[C@@H]2[C@]1(C)CC[C@@H]1[C@@]3(C)CC[C@H](O)C[C@@H]3[C@@H](O)C[C@]12O | > 25 | > 25 | 12.5 (≈ 27.6 µM) | > 25 | > 25 | > 25 | > 25 | > 25 | > 25 | > 25 | > 25 | > 25 | > 25 | > 25 | 25 (≈ 55.2 µM) | > 25 | 11.3 (≈ 25 µM) | 19.4 (≈ 42.9 µM) | 15.6 (≈ 34.5 µM) | 11.4 (≈ 25.2 µM) | MIC (Staphylococcus aureus [14]): > 25 µg/mL; MIC (Salmonella typhimurium): > 25 µg/mL; EC50 (SK-MEL-2): 12.4 µg/mL (≈ 27.4 µM); MIC (Staphylococcus aureus [15]): > 25 µg/mL; MIC (Pseudomonas aeruginosa [16]): 25 µg/mL (≈ 55.2 µM)
2 | C=C(CC[C@@H](C)[C@H]1C[C@@H](O)[C@H]2[C@@H]3C[C@H](O)[C@H]4C[C@@H](O)CC[C@]4(C)[C@H]3CC[C@@]21C)[C@H](C)CO [CERTONARDOSTEROL D] | > 25 | > 25 | 25 (≈ 55.7 µM) | > 25 | > 25 | > 25 | > 25 | > 25 | > 25 | > 25 | > 25 | > 25 | > 25 | > 25 | 25 (≈ 55.7 µM) | > 25 | 5.3 (≈ 11.8 µM) | 9.6 (≈ 21.4 µM) | 8.5 (≈ 18.9 µM) | 4.8 (≈ 10.7 µM) | MIC (Staphylococcus aureus [14]): > 25 µg/mL; MIC (Salmonella typhimurium): > 25 µg/mL; EC50 (SK-MEL-2): 5.5 µg/mL (≈ 12.3 µM); MIC (Staphylococcus aureus [15]): > 25 µg/mL; MIC (Pseudomonas aeruginosa [16]): 25 µg/mL (≈ 55.7 µM)

Second part, led by results:

Row | MIC (Klebsiella oxytoca) [µg/mL] | MIC (Escherichia coli [1]) [µg/mL] | MIC (Streptococcus pyogenes [2]) [µg/mL] | MIC (Pseudomonas aeruginosa [3]) [µg/mL] | MIC (Enterococcus faecium) [µg/mL] | MIC (Enterobacter cloacae [4]) [µg/mL] | MIC (Pseudomonas aeruginosa [5]) [µg/mL] | MIC (Escherichia coli [6]) [µg/mL] | MIC (Escherichia coli [7]) [µg/mL] | MIC (Escherichia coli [8]) [µg/mL] | MIC (Klebsiella aerogenes) [µg/mL] | MIC (Enterobacter cloacae [9]) [µg/mL] | MIC (Escherichia coli [10]) [µg/mL] | MIC (Streptococcus pyogenes [11]) [µg/mL] | MIC (Pseudomonas aeruginosa [12]) [µg/mL] | MIC (Staphylococcus aureus [13]) [µg/mL] | SMILES | EC50 (A549) [µg/mL] | EC50 (HCT-15) [µg/mL] | EC50 (SK-OV-3) [µg/mL] | EC50 (XF498) [µg/mL] | also measured
3 | > 25 | > 25 | 25 (≈ 52 µM) | > 25 | > 25 | > 25 | > 25 | > 25 | > 25 | > 25 | > 25 | > 25 | > 25 | > 25 | 25 (≈ 52 µM) | > 25 | C=C(CC[C@@H](C)[C@H]1C[C@@H](O)[C@@H]2[C@]1(C)CC[C@@H]1[C@@]3(C)CC[C@H](O)[C@H](O)[C@@H]3[C@@H](O)C[C@]12O)[C@H](C)CO [CERTONARDOSTEROL A] | 3.1 (≈ 6.45 µM) | 4.5 (≈ 9.36 µM) | 7.3 (≈ 15.2 µM) | 4.4 (≈ 9.15 µM) | MIC (Staphylococcus aureus [14]): > 25 µg/mL; MIC (Salmonella typhimurium): > 25 µg/mL; EC50 (SK-MEL-2): 4.1 µg/mL (≈ 8.53 µM); MIC (Staphylococcus aureus [15]): > 25 µg/mL; MIC (Pseudomonas aeruginosa [16]): 25 µg/mL (≈ 52 µM)
4 | > 25 | > 25 | 25 (≈ 53.8 µM) | > 25 | > 25 | > 25 | > 25 | > 25 | > 25 | > 25 | > 25 | > 25 | > 25 | > 25 | 25 (≈ 53.8 µM) | > 25 | C=C(CC[C@@H](C)[C@H]1C[C@@H](O)[C@H]2[C@@H]3C[C@H](O)[C@H]4[C@@H](O)[C@@H](O)CC[C@]4(C)[C@H]3CC[C@@]21C)[C@H](C)CO [CERTONARDOSTEROL B] | 3.6 (≈ 7.75 µM) | 6.4 (≈ 13.8 µM) | 6.9 (≈ 14.8 µM) | 4.7 (≈ 10.1 µM) | MIC (Staphylococcus aureus [14]): > 25 µg/mL; MIC (Salmonella typhimurium): > 25 µg/mL; EC50 (SK-MEL-2): 4.9 µg/mL (≈ 10.5 µM); MIC (Staphylococcus aureus [15]): > 25 µg/mL; MIC (Pseudomonas aeruginosa [16]): 25 µg/mL (≈ 53.8 µM)
5 | > 25 | > 25 | 25 (≈ 53.8 µM) | > 25 | > 25 | > 25 | > 25 | > 25 | > 25 | > 25 | > 25 | > 25 | > 25 | > 25 | 25 (≈ 53.8 µM) | > 25 | C=C(CC[C@@H](C)[C@H]1C[C@@H](O)[C@@H]2[C@]1(C)CC[C@@H]1[C@@]3(C)CC[C@H](O)C[C@@H]3[C@@H](O)C[C@]12O)[C@H](C)CO [CERTONARDOSTEROL C] | 14.1 (≈ 30.3 µM) | 23.9 (≈ 51.4 µM) | 20.2 (≈ 43.5 µM) | 13.3 (≈ 28.6 µM) | MIC (Staphylococcus aureus [14]): > 25 µg/mL; MIC (Salmonella typhimurium): > 25 µg/mL; EC50 (SK-MEL-2): 15.1 µg/mL (≈ 32.5 µM); MIC (Staphylococcus aureus [15]): > 25 µg/mL; MIC (Pseudomonas aeruginosa [16]): 25 µg/mL (≈ 53.8 µM)
